Results published in patent US20230255903A1, “URINARY SYMPTOM THERAPEUTIC AGENT” (TAIHO PHARMACEUTICAL CO., LTD., priority 2020, published 2023).
Where “and” joins values, the source holds several entries; their conditions need not be identical. Equal entries are not always repeated.

Experiments:
[1] = test system: patients having lower urinary tract disorders; test: Placebo-controlled double-blind comparative study: adverse events and adverse drug reactions; assay type: in vivo, human
Description: (§1) Patients having detrusor underactivity (DU) and at least one voiding symptom associated with DU, such as abdominal straining to void, slow urinary stream, intermittent stream, residual urine, and reduced voiding efficiency, were used as subjects. Using such subjects, a placebo-controlled double-blind comparative study was performed to examine the effectiveness and safety of Compound 1 (this test was performed using patients also having overactive bladder as subjects). Under double-blind conditions (in which neither the doctor who prescribed the drug nor the patients knew which drug was administered to each patient), 200 mg of Compound 1 or a placebo was orally administered twice a day after a meal for 12 weeks to evaluate the effectiveness and safety of Compound 1.
To study the safety of Compound 1 in patients having lower urinary tract disorders, adverse events (any unfavorable medical event that occurred in patients who participated in this study; whether or not there is a causal relationship with the active ingredient) and adverse drug reactions (adverse events that are determined to “have a reasonable possibility” of a causal relationship with the drug) were measured.

[2] = test system: patients having detrusor underactivity (DU); test: Placebo-controlled double-blind comparative study: bladder voiding efficiency (BVE); assay type: in vivo, human; conditions: for BVE, Value at Week 12, Mean(S.D.) / BVE, Change from Baseline at Week 12, Mean(S.D.): 200 mg orally twice a day for 12 weeks, FAS; for BVE change, Mean Difference = Compound 1-Placebo: Week 12; for Effect on voiding efficiency (in words): 12 weeks
Description: as §1
To evaluate the effectiveness, BVE (bladder voiding efficiency) was evaluated. BVE (%) was calculated by the following formula:
Voided volume/(Voided volume+Residual urine volume)×100.
The voided volume refers to the amount of urine per urination. The residual urine volume refers to the amount of urine that resides in the bladder as measured by transabdominal ultrasonography after completion of urination. The difference between the baseline (before administration) and the measurement value after 12 weeks of the administration was evaluated by using a paired t-test, whereas the difference in amount of BVE variation between the Compound 1 group and the placebo group was evaluated by using Student's t-test.

[3] = 200 mg orally twice a day for 12 weeks, All Treated Patients, N=52
[4] = patients with a residual urine volume of 50 mL or more, N=29
[5] = patients with a residual urine volume of 100 mL or more, N=19
[6] = patients with a residual urine volume of less than 50 mL, N=19

In the case of `CC1=C(CCCCCCCCCCCCCCCO)C(C)(C)CCC1=O` [Compound 1, 3-(15-hydroxypentadecyl)-2,4,4-trimethyl-2-cyclohexen-1-one], the “Adverse Drug Reactions, N (patients)” value [1, 3] was 0, the “Adverse Drug Reactions, incidence” value [1, 3] was 0.0% and the “Adverse Events, N (patients)” value [1, 3] was 24. For the same molecule, the “Adverse Events, incidence” value [1, 3] was 46.2%, the “Safety and tolerability (in words)” value ([1]; oral administration of 200 mg twice a day for 12 weeks) was “well tolerated” and the “BVE, Value at Week 12, Mean(S.D.)” value ([2]; entire group of patients having lower urinary tract disorders, N=48) was 66.79 (27.04) %. For the same molecule, the “BVE, Change from Baseline at Week 12, Mean(S.D.)” value (shortened to “BVE, Change from Baseline”) ([2]; entire group of patients, N=48) was 10.91% and 10.91 (26.48) %, the “BVE change, Mean Difference = Compound 1-Placebo” value ([2]; entire group of patients, Student's t-test p=0.178) was 8.49% and the “Effect on voiding efficiency (in words)” value ([2]; patients with a residual urine volume of 50 mL or more or of 100 mL or more) was “significantly increased the voiding efficiency”. For the same molecule, the “BVE, Change from Baseline” value [2, 4] was 18.41% and 18.41 (24.39) %, the “BVE, Value at Week 12, Mean(S.D.)” value [2, 4] was 61.66 (30.45) % and the “BVE change, Mean Difference = Compound 1-Placebo” value ([2]; patients with a residual urine volume of 50 mL or more, Student's t-test p=0.031) was 15.53%. The “BVE, Change from Baseline” value [2, 5] was 23.57% and 23.57 (25.54) %, the “BVE, Value at Week 12, Mean(S.D.)” value [2, 5] was 54.71 (33.78) % and the “BVE change, Mean Difference = Compound 1-Placebo” value ([2]; patients with a residual urine volume of 100 mL or more, Student's t-test p=0.025) was 21.47%. The “BVE, Change from Baseline” value [2, 6] was −0.55 (25.99) %, the “BVE, Value at Week 12, Mean(S.D.)” value [2, 6] was 74.62 (18.94) % and the “Effect on voiding efficiency (in words)” value ([2]; patients with a residual urine volume of less than 50 mL) was “did not significantly increase the voiding efficiency”. The “BVE change, Mean Difference = Compound 1-Placebo” value ([2]; patients with a residual urine volume of less than 50 mL, Student's t-test p=0.853) was −2.09%.
